The assay concerns the target T1, Acetylcholinesterase (Rattus norvegicus, UniProt P37136).
T1 sequence (P37136 whole entry): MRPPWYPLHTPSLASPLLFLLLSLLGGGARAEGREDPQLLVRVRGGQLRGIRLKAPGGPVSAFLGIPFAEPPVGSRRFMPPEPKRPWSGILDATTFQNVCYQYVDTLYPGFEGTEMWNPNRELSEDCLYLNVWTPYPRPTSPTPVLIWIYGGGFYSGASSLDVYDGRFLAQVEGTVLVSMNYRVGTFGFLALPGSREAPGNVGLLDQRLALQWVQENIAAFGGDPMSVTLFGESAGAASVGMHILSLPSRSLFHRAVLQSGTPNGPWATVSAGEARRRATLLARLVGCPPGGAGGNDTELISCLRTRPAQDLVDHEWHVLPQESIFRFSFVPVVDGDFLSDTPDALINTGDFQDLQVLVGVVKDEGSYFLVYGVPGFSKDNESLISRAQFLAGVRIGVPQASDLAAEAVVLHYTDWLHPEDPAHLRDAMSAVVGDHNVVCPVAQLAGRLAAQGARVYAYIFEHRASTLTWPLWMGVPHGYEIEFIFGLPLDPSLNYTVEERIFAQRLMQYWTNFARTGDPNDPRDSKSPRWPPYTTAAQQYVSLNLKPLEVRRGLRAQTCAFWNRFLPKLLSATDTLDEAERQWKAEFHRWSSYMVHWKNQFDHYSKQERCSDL
The experiment in a line: Inhibition of Wistar rat brain AChE. As to conditions: read-out: I50.

As to `C=C(C)[C@H]1C/C=C(/C(=O)OC)C(O)C(=O)C[C@@](C)(O)CC2=CC(C(=O)OC)=C(C1)O2` (stereo partly specified), the IC50 came out at 63 µM.

These data come from ChEMBL document CHEMBL1148172, “A New Diterpene from a Soft Coral, Sinularia dissecta” (J Nat Prod, 1993).
